One data set has as its target T1, Protein S (Homo sapiens, UniProt P07225).
T1 sequence (P07225 41-676 limits assumed): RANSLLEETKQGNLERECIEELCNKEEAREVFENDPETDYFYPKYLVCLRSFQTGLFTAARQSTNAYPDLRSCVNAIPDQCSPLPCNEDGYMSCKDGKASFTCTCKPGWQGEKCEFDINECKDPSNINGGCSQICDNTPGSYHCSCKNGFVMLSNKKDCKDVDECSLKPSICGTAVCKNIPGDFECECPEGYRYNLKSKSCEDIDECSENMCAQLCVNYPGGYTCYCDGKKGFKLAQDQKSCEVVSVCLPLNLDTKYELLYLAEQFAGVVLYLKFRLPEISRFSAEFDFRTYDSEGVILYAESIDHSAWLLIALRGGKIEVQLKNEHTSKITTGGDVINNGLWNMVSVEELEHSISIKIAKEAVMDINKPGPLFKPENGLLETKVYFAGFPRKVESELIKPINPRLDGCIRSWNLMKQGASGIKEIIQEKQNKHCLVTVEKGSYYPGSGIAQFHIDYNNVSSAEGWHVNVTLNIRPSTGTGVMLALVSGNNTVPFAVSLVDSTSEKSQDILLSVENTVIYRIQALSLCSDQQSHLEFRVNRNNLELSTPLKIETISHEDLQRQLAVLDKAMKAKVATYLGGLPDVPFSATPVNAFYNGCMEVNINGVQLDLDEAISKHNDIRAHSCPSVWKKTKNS
Nature of the data set: LANCE IC50 assay (competition TR-FRET) with tracer JBS0684. Type of data set: binding. To be noted: Table 4, multiple substitutions in JBS2572; read-out: LANCE IC50. As to the method: Peptides also were characterized in a competition, homogenous europium-based TR-FRET assay (LANCE IC50 assay) using JBS0684 as a tracer (i.e., competitor for Protein S binding). The following reagents were mixed together in a Perkin-Elmer ProxiPlate MTP well (indicated concentration is the final concentration): Eu-labeled Protein S (10 nM), Ulight™-labeled Streptavidin (100 nM), tracer (JBS0684 (300 nM)), and peptide (titrated in three-fold dilution steps). The final volume was 50 μl/well. The reaction mix was incubated for 1 hour at room temperature, then the fluorescence emission at 665 nm was recorded on a multi-mode reader (SpectraMax® M5, Molecular Devices) using the following instrument settings: Ex 340 nm, Em 665 nm, delay 50 μsec, integration 100 μsec, reads 100. Binding of tracer peptides to soluble europium-labeled Protein S was detected by Streptavidin labeled with an acceptor fluorophor (ULight™). Inhibition of tracer-binding to Protein S by a non-biotinylated peptide results in a decrease of TR-FRET between the Eu-labeled Protein S and ULight™-labeled Streptavidin. IC50 values were obtained from peptide titration curves at constant tracer concentration using non-linear regression of the fluorescence emission signals at 665 nm.
(In general: In TR-FRET formats the signal depends on donor and acceptor labels being close together.)

The target of data set [1] is T2, Protein S/APC cofactor activity (Homo sapiens, UniProt P07225).
T2 construct: host or cells: plasma
T2 sequence (P07225 41-676 limits assumed): T1 sequence (P07225 41-676 limits assumed)
Nature of the data set: CAT assay in pooled normal plasma supplemented with 3 nM APC. Type of data set: biochemical. The settings on record: 6 pM TF, 15 μM phospholipids. The procedure: Peptides also were tested for improvement of Protein S/APC-dependent thrombin generation in hemophilic plasma using a CAT assay. Protein S enhances the anticoagulation of APC in plasma. The CAT assay quantifies the effect of Protein S on APC-mediated thrombin generation initiated via the extrinsic coagulation pathway (Nicolaes, Blood Coagul. Fibrinolysis, 8:28 (1997)). APC (35 nM) and Protein S (25 nM) was added to Protein 5-depleted plasma, and plasma samples were incubated with high titer heat inactivated anti-human FVIII plasma raised in goat (4490 BU/ml; Baxter BioScience, Vienna, Austria; 50 BU/ml final plasma concentration). Thrombin formation in plasma was followed by calibrated automated thrombography (CAT) in a Fluoroskan Ascent® reader (Thermo Labsystems, Helsinki, Finland) and quantified via the thrombin peak-height. Thrombin generation was determined at high tissue factor (TF) concentration in the absence and in the presence of APC at a concentration that reduces the peak height to 20%. The inhibitory effect of peptides described herein on the APC cofactor activity of Protein S (PS) in plasma was measured in FVIII-inhibited pooled normal plasma supplemented with APC. Complete (100%) Protein S/APC inhibition is the height of the thrombin peak without addition of APC. Lack of (0%) PS/APC inhibition correlates to the thrombin peak-height value with a certain amount of APC. Peptides were ranked by their normalized values in comparison to the mean of wild-type controls including SD at two defined peptide concentrations (EC50 and EC90). […] For the assays, pooled normal plasma was supplemented with 3 nM APC and triggered with 6 pM TF, and 15 μM phospholipids (DOPC/POPS 80/20). Stock APC was diluted with TF-PL-MIX to 24 nM (plasma concentration: 3 nM).

Data set [2] addresses T3, human full-length Protein S (Homo sapiens, UniProt P07225).
T3 construct: using human full-length Protein S and human GAS6
T3 sequence (P07225 41-676 limits assumed): T1 sequence (P07225 41-676 limits assumed)
Description: Biacore (surface plasmon resonance) on immobilized Protein S. It is filed as binding. To be noted: Biacore. As to the method: Protein S affinity also was determined via Biacore (Biacore 3000 or Biacore T200) using human full-length Protein S and human GAS6. Briefly, 1000 RU of Protein S or GAS6 were immobilized on a CMS chip. In order to probe the kinetics of Protein S binding peptides to Protein S, the peptides were injected at various concentrations in a HBS-buffer containing 3 mM CaCl2 and 1% DMSO to the flow cell and allowed to interact with the immobilized proteins on the sensor chip. The chip could be regenerated with 4 M MgCl2 in HBS-buffer. Sensorgrams were fitted to a Langmuir binding model for the determination of kon and koff and the calculation of KD. Peptides were tested on their specificity to Protein S with peptide binding studies on the anti-target GAS6.
For orientation: Surface plasmon resonance follows binding to a sensor surface in real time, without labels.

The nature of data set [3]: plasma stability in mouse plasma. Type of data set: in vitro ADME. To be noted: 37° C. The procedure:
(§1) Affinity and activity of all 18 peptides was improved compared to parent JBS2572. […] Activity and stability were improved up to 1.5-fold. Plasma stability was determined in pooled normal human plasma and mouse plasma at 37° C.; exemplary results also are provided in Table 3.

Data set [4] is described as follows: plasma stability in pooled normal human plasma. Type of data set: in vitro ADME. The procedure: as §1
In data set [5] the test system is Protein S/APC dependent thrombin generation. Nature of the data set: CAT assay in plasmas from individuals with severe hemophilia A. It is filed as biochemical, human. To be noted: plasma of severe hemophilia A patients.
The target of a further data set is T4, C4BP/PS complex (Homo sapiens, UniProt P07225).
T4 sequence (P07225 41-676 limits assumed): T1 sequence (P07225 41-676 limits assumed)
Nature of the data set: LANCE IC50 assay on preformed C4BP/PS complex. Type of data set: binding. The settings on record: two hours of incubation, 100 nM peptide. As to the method:
To investigate the effect of the peptides described herein on PS/C4BP complexes, a LANCE IC50 assay was established using methods similar to those described above. JBS2572 or JBS3216 was added to a preformed C4BP/PS complex. Changes in the complex concentration were followed by recording the TR-FRET signal. For both peptides, a time- and concentration-dependent dissociation of the C4BP/PS complex was observed. The IC50 of JBS3216 was 0.3 nM, and the IC50 of JBS2572 was 2 nM. The time-dependency of the complex reduction was similar for both peptides. After two hours of incubation in the presence of 100 nM JBS2572 or JBS3216, the C4BP/PS complex was reduced to 60% and 50%, respectively. In addition, binding of biotinylated JBS2572 to Protein S was inhibited by C4BP in the LANCE IC50 assay. Pull-down experiments where JBS2697 was coupled to streptavidin sepharose and incubated for one hour at room temperature with (a) Protein S (1.6 pmol) (b) C4BP (8.5 pmol) and (c) Protein S (1.6 pmol)+C4BP (8.5 pmol) supported the results from the modified LANCE IC50 assay.

A further data set deals with thrombin generation. Description: thrombin generation in non-human mammals. The settings on record: cynomolgous monkey, marmoset monkey, pig, sheep, dog, rabbit, rat, and mouse. It is filed as biochemical.

Non-standard residues stand in square brackets, D forms with d. Residues, ends and D or L forms follow the SMILES beside them. Tle = CC(C)(C)[C@H](N)C(=O)O

On to `CSCC[C@H](NC(=O)[C@H](Cc1ccc(O)cc1)NC(=O)[C@H](Cc1c[nH]cn1)NC(=O)[C@H](CC(=O)O)NC(=O)[C@H](Cc1ccccc1)NC(=O)[C@H](CC(N)=O)NC(=O)[C@H](Cc1ccc(O)cc1)NC(=O)[C@H](CC(=O)O)NC(=O)[C@H](Cc1ccc(O)cc1)NC(=O)[C@H](Cc1c[nH]c2ccccc12)NC(=O)CNC(=O)[C@H](C)NC(=O)[C@H](CO)NC(=O)[C@@H](NC(=O)[C@H](CC(C)C)NC(=O)CNC(=O)[C@H](Cc1ccc(O)cc1)NC(C)=O)C(C)C)C(=O)N[C@@H](CCC(=O)O)C(=O)N[C@@H](Cc1ccccc1)C(=O)N[C@H](C(N)=O)[C@@H](C)O` [JBS3196] (Ac-YGLVSAGWYDYNFDHYMEFT-NH2), for which the IC50 on Protein S stood at 2.2 nM. In addition, it took 155 nM to reach a half-maximal effect in data set [1] (EC50).
For `CSCC[C@H](NC(=O)[C@H](Cc1ccc(O)cc1)NC(=O)[C@@H](NC(=O)[C@H](CC(=O)O)NC(=O)[C@H](CC(N)=O)NC(=O)[C@H](CC(N)=O)NC(=O)[C@H](Cc1ccc(O)cc1)NC(=O)[C@H](CC(=O)O)NC(=O)[C@H](Cc1ccc(O)cc1)NC(=O)[C@H](Cc1c[nH]c2ccccc12)NC(=O)CNC(=O)[C@H](C)NC(=O)[C@H](CCC(=O)O)NC(=O)[C@@H](NC(=O)[C@H](CC(C)C)NC(=O)CNC(=O)[C@H](Cc1ccc(O)cc1)NC(C)=O)C(C)C)[C@@H](C)O)C(=O)N[C@@H](CCC(=O)O)C(=O)N[C@@H](Cc1ccccc1)C(=O)N[C@H](C(N)=O)[C@@H](C)O` [JBS3201] (Ac-YGLVEAGWYDYNNDTYMEFT-NH2), in that order: 1.9 nM and 127 nM.
The corresponding values for `CSCC[C@H](NC(=O)[C@H](Cc1ccc(O)cc1)NC(=O)[C@H](Cc1c[nH]cn1)NC(=O)[C@H](CC(=O)O)NC(=O)[C@H](Cc1ccccc1)NC(=O)[C@H](CC(N)=O)NC(=O)[C@H](Cc1ccc(O)cc1)NC(=O)[C@H](CC(=O)O)NC(=O)[C@H](Cc1ccc(O)cc1)NC(=O)[C@H](Cc1c[nH]c2ccccc12)NC(=O)CNC(=O)[C@H](C)NC(=O)[C@H](CO)NC(=O)[C@@H](NC(=O)[C@H](CC(C)C)NC(=O)CNC(=O)[C@@H](NC(C)=O)[C@@H](C)O)C(C)(C)C)C(=O)N[C@@H](CCC(=O)O)C(=O)N[C@@H](Cc1ccccc1)C(=O)N[C@H](C(N)=O)[C@@H](C)O` [JBS3203, Ac-TGL-Tle-SAGWYDYNFDHYMEFT-NH2] (Ac-TGL[Tle]SAGWYDYNFDHYMEFT-NH2) are 1.8 nM and 127 nM.
Turning to `CC(=O)N[C@@H](CCC(=O)O)C(=O)N[C@@H](Cc1ccc(O)cc1)C(=O)N[C@@H](Cc1ccc(O)cc1)C(=O)N[C@H](C(=O)N[C@@H](CO)C(=O)N[C@@H](C)C(=O)NCC(=O)N[C@@H](Cc1c[nH]c2ccccc12)C(=O)N[C@@H](Cc1ccc(O)cc1)C(=O)N[C@@H](CC(=O)O)C(=O)N[C@@H](Cc1ccc(O)cc1)C(=O)N[C@@H](CC(N)=O)C(=O)N[C@H](C(=O)N[C@@H](CC(=O)O)C(=O)N[C@H](C(=O)N[C@@H](Cc1ccc(O)cc1)C(=O)N[C@@H](Cc1ccc(O)cc1)C(=O)N[C@@H](CCC(=O)O)C(=O)N[C@@H](Cc1ccccc1)C(=O)N[C@@H](CCC(=O)O)C(N)=O)[C@@H](C)O)[C@@H](C)O)C(C)C` [JBS3216] (Ac-EYYVSAGWYDYNTDTYYEFE-NH2), the dissociation rate constant (koff) in data set [2] (Table 3, read-out: koff) was determined as 0.000233 s⁻¹. Also, the kon in data set [2] (Table 3, read-out: kon) turned out to be 1.14e+06 M⁻¹ s⁻¹. In addition, the Kd in data set [2] (affinity-matured and modified peptides, read-out: KD) came to 0.2 nM. Also, in data set [3], the “Stability in mouse plasma; 4 hours [%]” value is 66 ± 23%. In addition, in data set [4] (24 hours of incubation in human plasma), the “binding activity remaining after incubation in human plasma” value is on record as 50%. In addition, the “Stability in human plasma; 6 hours [%]” value in data set [4] (pooled normal human plasma, 37° C., 6 hours) is 80 ± 2%. The compound further gave an EC50 in data set [5] of 85 nM. The “C4BP/PS complex reduced to” value on C4BP/PS complex is 50%. Also, the “thrombin generation in non-human mammals” value in the data set on thrombin generation is on record as “improved thrombin generation”.

One may read the IC50 as the midpoint of a concentration-inhibition curve. By EC50 is commonly meant the concentration giving half of the maximal effect. A higher EC50 goes with lower potency in that assay. Usually koff stands for a measure of how fast the partners let go of each other. What is called kon is the rate constant with which the complex forms. A word on the Kd: it is the equilibrium constant for the complex coming apart.

These data come from patent US10124033B2, “Peptides and methods of use” (BAXALTA INCORPORATED, priority 2014, dated 2018).
